Laboratory results taken from PubChem BioAssay (NCI).
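Grown in 96-well plates, cells were treated for 48 hours with each compound at five concentrations. Insufficient inhibition: endpoint recorded as highest concentration tested. TGI: concentration producing complete growth inhibition.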

How the values were obtained:
Experiment in all cases: inhibition of tumour cell growth, NCI panel, 48 h
786-0 renal = tested on: 786-0 renal
CAKI-1 renal = tested on: CAKI-1 renal
HCT-116 colon = tested on: HCT-116 colon
HOP-62 NSCLC = tested on: HOP-62 NSCLC
HOP-92 NSCLC = tested on: HOP-92 NSCLC
MOLT-4 leukemia = tested on: MOLT-4 leukemia
NCI-H460 lung = tested on: NCI-H460 lung
OVCAR-3 ovarian = tested on: OVCAR-3 ovarian
RPMI-8226 leukemia = tested on: RPMI-8226 leukemia
SN12C renal = tested on: SN12C renal
TK-10 renal = tested on: TK-10 renal
HS 578T breast = tested on: HS 578T breast
SF-295 CNS = tested on: SF-295 CNS
T-47D breast = tested on: T-47D breast
MDA-MB-231 breast = tested on: MDA-MB-231 breast

Measured: TGI

Cc1nsc2cc(Cl)n(C)c(=O)c12
> 100 µM: 786-0 renal | CAKI-1 renal | HCT-116 colon | HOP-62 NSCLC | HOP-92 NSCLC | MOLT-4 leukemia | NCI-H460 lung | OVCAR-3 ovarian | RPMI-8226 leukemia | SN12C renal | TK-10 renal

CCCCCCCCC#CCCCCCCC(F)C(=O)O (stereo not given)
> 100 µM: 786-0 renal | HCT-116 colon | HOP-62 NSCLC | HOP-92 NSCLC | HS 578T breast | MOLT-4 leukemia | NCI-H460 lung | OVCAR-3 ovarian | RPMI-8226 leukemia | SF-295 CNS | T-47D breast | TK-10 renal

COc1cccc(C2c3cc4c(cc3OC(N3CCCC3)C2c2ccccc2)OCO4)c1O (stereo not given)
7 µM: CAKI-1 renal
27.8 µM: 786-0 renal | OVCAR-3 ovarian
31 µM: RPMI-8226 leukemia | SN12C renal
21.5 µM: MOLT-4 leukemia
73.6 µM: TK-10 renal
33.7 µM: NCI-H460 lung
47.6 µM: HOP-62 NSCLC
30.3 µM: SF-295 CNS
8.53 µM: HS 578T breast
> 100 µM: T-47D breast
17.7 µM: HCT-116 colon

COc1cnc2oc3ccc(O)cc3c2c1-c1ccccc1
> 100 µM: 786-0 renal | CAKI-1 renal | HOP-62 NSCLC | HOP-92 NSCLC | HS 578T breast | MOLT-4 leukemia | NCI-H460 lung | OVCAR-3 ovarian | RPMI-8226 leukemia | SF-295 CNS | SN12C renal | T-47D breast | TK-10 renal
45 µM: HCT-116 colon

O=C(NC1C(=O)NC(CCc2ccccc2)NC1=O)OCc1ccccc1 (stereo not given)
> 100 µM: 786-0 renal | CAKI-1 renal | HCT-116 colon | HOP-62 NSCLC | HOP-92 NSCLC | MDA-MB-231 breast | MOLT-4 leukemia | NCI-H460 lung | OVCAR-3 ovarian | RPMI-8226 leukemia | SF-295 CNS | SN12C renal | T-47D breast | TK-10 renal

COC(=O)/C=C1/OC(c2ccccc2)=C(Br)C1=O
89.2 µM: SN12C renal
> 100 µM: HCT-116 colon | HOP-62 NSCLC | HOP-92 NSCLC | MOLT-4 leukemia | NCI-H460 lung | OVCAR-3 ovarian | RPMI-8226 leukemia | T-47D breast | TK-10 renal
81.6 µM: 786-0 renal
66.3 µM: MDA-MB-231 breast
51.3 µM: CAKI-1 renal

Cc1ccc(C(=O)c2[nH]c(NCc3ccccc3)c(C(=S)Nc3ccccc3)c2N)cc1
28.8 µM: SN12C renal
5 µM: RPMI-8226 leukemia
29.2 µM: HOP-62 NSCLC
18.9 µM: HOP-92 NSCLC
17.2 µM: SF-295 CNS
23.3 µM: TK-10 renal
15.2 µM: HCT-116 colon
25.2 µM: OVCAR-3 ovarian
33.5 µM: T-47D breast
18.8 µM: NCI-H460 lung
19.6 µM: MDA-MB-231 breast
18.7 µM: 786-0 renal
6.38 µM: MOLT-4 leukemia
27.5 µM: CAKI-1 renal

CCOC(=O)/C(=C\n1c(=O)sc2ccccc21)C(=O)c1ccccc1
64.7 µM: CAKI-1 renal
> 100 µM: 786-0 renal | HCT-116 colon | HOP-62 NSCLC | HS 578T breast | MDA-MB-231 breast | MOLT-4 leukemia | NCI-H460 lung | RPMI-8226 leukemia | SF-295 CNS | SN12C renal | T-47D breast

O=C1CSc2ccnc(=O)n21
> 100 µM: 786-0 renal | CAKI-1 renal | HCT-116 colon | HOP-62 NSCLC | HOP-92 NSCLC | HS 578T breast | MOLT-4 leukemia | NCI-H460 lung | RPMI-8226 leukemia | SN12C renal | TK-10 renal

CCOc1ccc(NC(=O)/C=C/c2ccco2)cc1
> 100 µM: 786-0 renal | CAKI-1 renal | HCT-116 colon | HS 578T breast | MDA-MB-231 breast | MOLT-4 leukemia | NCI-H460 lung | RPMI-8226 leukemia | SF-295 CNS | SN12C renal | TK-10 renal

CSCCCNC(=O)c1csc(-c2csc(CCNC(=O)CNC(=O)OC(C)(C)C)n2)n1
> 100 µM: 786-0 renal | CAKI-1 renal | HCT-116 colon | HOP-62 NSCLC | HOP-92 NSCLC | HS 578T breast | MDA-MB-231 breast | MOLT-4 leukemia | NCI-H460 lung | OVCAR-3 ovarian | SF-295 CNS | SN12C renal | TK-10 renal

Cc1cc(O)c(C(O)c2ccccn2)cc1O (stereo not given)
24.2 µM: CAKI-1 renal
43.7 µM: SN12C renal
33.3 µM: MDA-MB-231 breast
67.4 µM: RPMI-8226 leukemia
31.8 µM: TK-10 renal
31.2 µM: HCT-116 colon
34.5 µM: 786-0 renal
> 100 µM: HOP-62 NSCLC | HS 578T breast | MOLT-4 leukemia | NCI-H460 lung | SF-295 CNS
28.6 µM: OVCAR-3 ovarian

COc1ccccc1NC(=S)Nc1ccccn1
> 100 µM: 786-0 renal | CAKI-1 renal | HCT-116 colon | HOP-62 NSCLC | HS 578T breast | MDA-MB-231 breast | MOLT-4 leukemia | NCI-H460 lung | OVCAR-3 ovarian | RPMI-8226 leukemia | SF-295 CNS | TK-10 renal

Fc1nc(-c2c3ccccc3c3sc4ccccc4n23)nc(N2CCOCCOCCOCCOCC2)n1
> 100 µM: 786-0 renal | CAKI-1 renal | HCT-116 colon | HOP-62 NSCLC | HS 578T breast | MDA-MB-231 breast | MOLT-4 leukemia | NCI-H460 lung | OVCAR-3 ovarian | RPMI-8226 leukemia | SF-295 CNS | SN12C renal | TK-10 renal
93 µM: HOP-92 NSCLC

Nc1ccc(C(=O)NN2C(=O)C(Cl)C2c2ccc(O)cc2)cc1 (stereo not given)
51.3 µM: CAKI-1 renal
41.8 µM: HOP-92 NSCLC
36.6 µM: SN12C renal
44 µM: HCT-116 colon
> 100 µM: RPMI-8226 leukemia | SF-295 CNS | TK-10 renal
38.4 µM: HOP-62 NSCLC
31.3 µM: 786-0 renal
37.8 µM: MOLT-4 leukemia
54.8 µM: NCI-H460 lung
29.2 µM: OVCAR-3 ovarian

O=C1NCC2(CCN(CC3COc4ccccc4O3)CC2)N1c1ccccc1 (stereo not given)
> 100 µM: 786-0 renal | CAKI-1 renal | HCT-116 colon | HOP-62 NSCLC | HS 578T breast | MDA-MB-231 breast | MOLT-4 leukemia | NCI-H460 lung | OVCAR-3 ovarian | RPMI-8226 leukemia | SF-295 CNS | SN12C renal | T-47D breast | TK-10 renal

O=C(CC(=O)n1nc(-c2ccccc2)c(N=Nc2ccc([N+](=O)[O-])cc2)c1-c1ccccc1)Nc1ccc(Cl)cc1
99.3 µM: CAKI-1 renal
52.3 µM: HOP-92 NSCLC
66.1 µM: OVCAR-3 ovarian
69.1 µM: TK-10 renal
> 100 µM: 786-0 renal | HCT-116 colon | MOLT-4 leukemia | NCI-H460 lung | RPMI-8226 leukemia | SF-295 CNS | SN12C renal
42.7 µM: HOP-62 NSCLC
